Test results reported in ChEMBL document CHEMBL6127121, “Development of N-(4-(1H-Imidazol-1-yl)phenyl)-4-chlorobenzenesulfonamide, a Novel Potent Inhibitor of β-Catenin with Enhanced Antitumor Activity and Metabolic Stability” (J Med Chem, 2024).
Calls of active or inactive are those of the source. The rule behind the calls is not given here.

Tests used:
[1] = system: SW480; assay: Inhibition of Wnt/beta-catenin signaling in human SW480 cells assessed as residual activity at IC50 concentration incubated for 12 hrs by Topflash/Fopflash Dual-Glo luciferase reporter assay; type: cell-based; details: dose 30.0 µM
[2] = system: HCT-116; assay: Inhibition of Wnt/beta-catenin signaling in human HCT-116 cells assessed as residual activity at IC50 concentration incubated for 12 hrs by Topflash/Fopflash Dual-Glo luciferase reporter assay; type: cell-based; details: dose 30.0 µM
[3] = system: SW480; assay: Inhibition of cell growth in human SW480 cells incubated for 48 to 72 hrs by XTT method; type: functional, cell-based
[4] = system: HCT-116; assay: Inhibition of cell growth in human HCT-116 cells incubated for 48 to 72 hrs by XTT method; type: functional, cell-based
[5] = system: MDA-MB-231; assay: Antiproliferative activity against human MDA-MB-231 cells at 1.48 to 40 uM incubated for 72 hrs by IncuCyte live-cell imaging analysis; type: functional, cell-based; details: dose 1.48-40 µM
[6] = system: MDA-MB-231; assay: Antiproliferative activity against human MDA-MB-231 cells at 13.33 uM incubated for 72 hrs by IncuCyte live-cell imaging analysis; type: functional, cell-based
[7] = system: MDA-MB-231; assay: Antiproliferative activity against human MDA-MB-231 cells at 40 uM incubated for 24 hrs by IncuCyte live-cell imaging analysis; type: functional, cell-based
[8] = Metabolic stability in human liver microsomes assessed as intrinsic clearance per mg protein preincubated for 10 mins followed by NADP, glucose-6-phosphate and glucose-6-phosphate dehydrogenase addition and measured upto 60 mins by LC-MS/MS analysis; type: ADME, Microsome; details: time < 70 min, read-out: CLH
[9] = Metabolic stability in human liver microsomes assessed as half life preincubated for 10 mins followed by NADP, glucose-6-phosphate and glucose-6-phosphate dehydrogenase addition and measured upto 60 mins by LC-MS/MS analysis; type: ADME, Microsome; details: time < 70 min
[10] = Metabolic stability in mouse liver microsomes assessed as intrinsic clearance per mg protein preincubated for 10 mins followed by NADP, glucose-6-phosphate and glucose-6-phosphate dehydrogenase addition and measured upto 60 mins by LC-MS/MS analysis; type: ADME, Microsome; details: time < 70 min, read-out: CLH
[11] = Metabolic stability in mouse liver microsomes assessed as half life preincubated for 10 mins followed by NADP, glucose-6-phosphate and glucose-6-phosphate dehydrogenase addition and measured upto 60 mins by LC-MS/MS analysis; type: ADME, Microsome; details: time < 70 min

EC50 [3]	EC50 [4]	microsomal CLint [8]	half-life [9]	microsomal CLint [10]	half-life [11]	Structure (SMILES)	Activity [1]	Activity [2]	Activity [5]	Activity [6]	Activity [7]
43 µM	48 µM					O=S(=O)(Nc1cccc(-c2ccccc2)c1)c1ccc(C(F)(F)F)cc1	28.3%	36.4%			
8.7 µM	12 µM					O=S(=O)(Nc1ccc(-c2ccccc2)cc1)c1ccc(C(F)(F)F)cc1	37.3%	22.4%			
12 µM	9 µM					O=S(=O)(Nc1cccc(-c2ccccc2)c1)c1ccc(Br)cc1	22.7%	33.5%	Active	Active	
45 µM	39 µM					O=S(=O)(Nc1ccc(-c2cccs2)cc1)c1ccc(C(F)(F)F)cc1	26.6%	33.1%			
> 50 µM	> 50 µM					O=S(=O)(Nc1ccc(-c2ccco2)cc1)c1ccc(C(F)(F)F)cc1	6.6%	2.4%			
> 50 µM	> 50 µM					O=S(=O)(Nc1cccc(-c2ccoc2)c1)c1ccc(C(F)(F)F)cc1	7.4%	6.7%			
						O=C1[C@H](Cc2ccc(O)cc2)N2C(=O)CCN(C(=O)NCc3ccccc3)[C@H]2CN1Cc1cccc2ccccc12					Active
25 µM	19 µM					O=S(=O)(Nc1cccc(-c2ccsc2)c1)c1ccc(Br)cc1	2.7%	0.8%	Active		Active
> 50 µM	> 50 µM					O=S(=O)(Nc1cccc(-n2ccnc2)c1)c1ccc(Cl)cc1	2.3%	8.4%			
27 µM	32 µM					O=S(=O)(Nc1ccc(-c2ccsc2)cc1)c1ccc(Br)cc1	3.7%	8.6%			
> 50 µM	> 50 µM					O=S(=O)(Nc1cccc(-c2ccco2)c1)c1ccc(C(F)(F)F)cc1	5.3%	2.7%			
		94 µL/min/mg	14.8 min	712 µL/min/mg	1.9 min	CCOc1ccc2ccc(=O)oc2c1					
25 µM	39 µM					O=S(=O)(Nc1cccc(-c2ccccn2)c1)c1ccc(I)cc1	2.6%	8.5%			
> 50 µM	> 50 µM					O=S(=O)(Nc1ccc(-n2ccnc2)cc1)c1ccc(Br)cc1	7.2%	6.4%			
> 50 µM	> 50 µM					CCOC(=O)c1ccc(NS(=O)(=O)c2ccc(Br)cc2)cc1	21.6%	18.8%			
